Measurements as given in patent publication US8142801B2, “Pesticidal compositions and methods of use thereof” (EcoBlend, LLC, priority 2009, dated 2012).

Legend:
Fire ants = assay: Spray test on fire ants; assay type: in vivo, Red Imported species
Description: The time various compositions take to both knock down (KD) and kill (TM) various pests was determined. As a control, results were compared using sodium lauryl sulfate by itself, and with the various fatty acids.
The tests were conducted for a maximum observation time of 30 minutes, after which time, the test, and all observations, was stopped.
Protocol: Fire ants (Red Imported species) were directly sprayed while traveling on the ground. The average amount of material per area was calculated. The amount of material to kill the Fire Ant was determined.

Tick = Tick repellency on skin; assay type: in vivo; conditions: on its own

With `CCCCCCCCCCCCOS(=O)(=O)[O-].[Na+]` [sodium lauryl sulfate] the “Amount of aqueous 10% SLS mixture to kill the fire ant” value (Fire ants) was “around 20 ml” and the Repellency to ticks (Tick) was “not observed to be particularly repellent”.
